Measured values taken from patent publication US20250057864A1, “COMPOSITION FOR IMPROVING EXERCISE PERFORMANCE COMPRISING GYPENOSIDE COMPOUND AS ACTIVE INGREDIENT” (BTC CORPORATION, priority 2022, published 2025).

Tests used:
C2C12 cells = assay: Intracellular ROS production in C2C12 cells (DCF-DA); type: cell-based, mice; conditions: oxidative stress by 50 μM TBHP, 1 h pretreatment with test substance
Procedure: C2C12 cells were dispensed into a 96-well plate at 1×10^4 cells/well and stabilized for 24 hours. Subsequently, the cells were cultured for 1 hour after exchanging with the culture medium with the myocyte differentiation medium containing each test substance. After 1 hour, the cells were washed with PBS and cultured further for 3 hours with a culture medium containing 50 μM tert-butyl hydrogen peroxide (TBHP), and the ROS level in the cells was measured using a DCF-DA assay kit (Abcam) according to the manufacturer's method.
In order to investigate the effect of each of the compositions according to Examples 1 to 4 on ROS production in C2C12 cells, ROS production was measured using 2′,7′-dichlorofluorescin diacetate (DCF-DA). DCF-DA was measured using the principle that it is oxidized by ROS in cells and is converted to DCF, which emits fluorescence.

[1] = tested on: p-AMPK, p-Sirt1, p-p38, p-Nrf2 in C2C12 cells; assay: Western blot of proteins related with PGC-1α activation in C2C12 cells; type: cell-based, mice; conditions: C2C12, 0.36 μg/mL (Cr 5 μg/mL), control G1 = 1.00
Procedure: C2C12 cells were dispensed into a 6-well plate at 2×10^5 cells/well and stabilized for 24 hours. In order to investigate the effect of each test substance on muscle cell differentiation, each test substance was added to the myocyte differentiation medium. The cells were cultured for 4 days (mRNA analysis) or 7 days (protein analysis) after exchanging the cell culture medium with the myocyte differentiation medium treated with each test substance, as shown in Table 2.
C2C12 cells were dispensed into a 6-well plate at 2×10^5 cells/well and stabilized for 24 hours. The cells were cultured for 7 days after exchanging the culture medium with a myocyte differentiation medium containing the test substance. After the induction of differentiation for 7 days, the cells were homogenized by adding a lysis buffer (20 mmol/L HEPES, pH 7.5, 150 mmol/L NaCl, 1% Triton X-100, 1 mmol/L EDTA, 1 mmol/L EGTA, 100 mmol/L NaF, 10 mmol/L sodium pyrophosphate, 1 mmol/L Na3VO4, 20 μg/mL aprotinin, 10 μg/mL antipain, 10 μg/mL leupeptin, 80 μg/mL benzamidine HCl, 0.2 mmol/L PMSF) and a total cell lysate was obtained through centrifugation. The protein quantity of the total cell lysate was measured using a BCA protein assay kit (Thermo Scientific). The total cell lysate (50 μg) was separated by 10% sodium dodecyl sulfate polyacrylamide gel electrophoresis (SDS-PAGE) and then transferred to a polyvinylidene difluoride membrane (Milipore). The membrane was blocked for 1 hour in 5% skim milk-TBST (20 mmol/L Tris·HCl, pH 7.5, 150 mmol/L NaCl, 0.1% Tween 20) and then incubated for 16 hours at 4° C. or for 1 hour at room temperature after adding antibodies. Thereafter, horseradish peroxidase (HRP)-linked anti-rabbit IgG or HRP-linked anti-mouse IgG was added and the mixture was stirred for 1 hour. The detected protein bands were visualized by enhanced chemiluminescence using a Luminata™ Forte Western HRP substrate (Millipore). The level of protein expression was quantified using the ImageQuant™ LAS 500 imaging system (GE Healthcare Bio-Sciences AB).
The result of western blot analysis conducted using the total cell lysate obtained by treating with the test substance to investigate the effect of the test substance on the changes in proteins associated with PGC-1α activation is shown in Table 6.
Based on the western blot analysis result, the activity of each protein was evaluated from the ratio of activation.

Question: What does the source list for `O=C(O)c1ccc2c3c1cccc3c(=O)n1c3ccccc3nc21` [STO]?
Answer: ROS production (fluorescence intensity) (C2C12 cells): 33.97±2.22 fluorescence intensity; p-AMPK/AMPK ratio [1]: significantly inhibited; p-Nrf2/Nrf2 ratio [1]: significantly inhibited; p-p38/p38 ratio [1]: significantly inhibited
